Data: US20090105263A1, “HETEROBICYCLIC COMPOUNDS AS GLUCOKINASE ACTIVATORS” (priority 2005, published 2009)

Target: T1, recombinant human pancreatic GLK (Homo sapiens, UniProt P35557)
T1 sequence (P35557 1-465): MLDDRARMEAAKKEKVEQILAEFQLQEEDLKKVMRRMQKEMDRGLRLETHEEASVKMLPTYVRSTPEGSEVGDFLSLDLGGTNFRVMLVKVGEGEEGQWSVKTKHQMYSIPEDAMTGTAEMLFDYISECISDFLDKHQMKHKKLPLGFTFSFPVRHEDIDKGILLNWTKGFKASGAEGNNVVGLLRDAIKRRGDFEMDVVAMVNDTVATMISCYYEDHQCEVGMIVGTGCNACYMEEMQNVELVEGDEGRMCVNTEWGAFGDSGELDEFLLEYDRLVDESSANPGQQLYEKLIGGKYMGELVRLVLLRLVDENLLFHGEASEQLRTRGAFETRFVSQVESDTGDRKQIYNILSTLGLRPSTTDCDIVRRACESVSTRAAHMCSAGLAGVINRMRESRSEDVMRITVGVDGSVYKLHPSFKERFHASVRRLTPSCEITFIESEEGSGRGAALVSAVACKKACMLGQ
Test: biochemical

COC[C@H](C)Oc1cc(OCc2ccccc2)cc(-c2cc3cccnc3[nH]2)c1 [Example 1, 2-[3-(Benzyloxy)-5-[(1S)-2-methoxy-1-methylethoxy]phenyl]-1H-pyrrolo[2,3-b]pyridine]
EC50: 0.12 µM
